# Test results: patent US20070232492A1, “Herbicidal Composition” (Ishihara Sangyo Kaisha, LTD., priority 2004, published 2007)
# Like-named read-outs stand apart in the source and are kept apart here.
# Experiments:
# [1] = tested on: Japanese bulrush (Scirpus juncoides); assay: Growth inhibition of Japanese bulrush in paddy soil pots, application under submerged condition, visual rating and Colby expected value; type: in vivo
# Text: (§1) When the herbicidal activity in a case where two active ingredients are combined, is larger than the simple sum of the respective herbicidal activities of the two active ingredients (the expected activity), it is called a synergistic effect. The activity expected by the combination of two active ingredients can be calculated as follows (Colby S. R., “Weed”, vol. 15, p. 20-22, 1967). E=p+q−(p×q÷100) where p: growth inhibition rate when treated with x (g/a) of herbicide X,
# (§2) q: growth inhibition rate when treated with y (g/a) of herbicide Y,
# (§3) E: growth inhibition rate expected when treated with x (g/a) of herbicide X and y (g/a) of herbicide Y.
# (§4) Namely, when the actual growth inhibition rate (observed value) is larger than the growth inhibition rate by the above calculation (expected value), the activity by the combination can be regarded as showing a synergistic effect.
# (§5) Growth inhibition rate (%)=0% (equivalent to the non-treated area) to 100% (complete kill)
# (§6) Paddy field soil was put into a 1/10,000 are pot, and seeds of Japanese bulrush (Scirpus juncoides) were sown and left to stand under an irrigated condition with a water depth of 3.5 cm. When Japanese bulrush reached 2.3 to 2.6 leaf stage, a wettable powder of compound A2 and granules of compound (B7.1) were, respectively, diluted with water and applied under submerged condition so that the active ingredients became the prescribed amounts, respectively. The state of growth was visually observed 10 days after application, and evaluation and calculation were carried out in the same manner as in the above Test Example 1.
# as §6, with “an emulsifiable concentrate” for “granules”, “(B3.1)” for “(B7.1)”
# (§7) Paddy field soil was put into a 1/10,000 are pot, and seeds of Japanese bulrush (Scirpus juncoides) were sown and left to stand under an irrigated condition with a water depth of 3.5 cm. When Japanese bulrush reached 2 leaf stage, wettable powders of compound A2, C2 and C4 and granules of compound C6 were, respectively, diluted with water and applied under submerged condition so that the active ingredients became the prescribed amounts, respectively.
# Paddy field soil was put into a 1/10,000 are pot, and seeds of Japanese bulrush (Scirpus juncoides) were sown and left to stand under an irrigated condition with a water depth of 3.5 cm. When Japanese bulrush reached 2 leaf stage, wettable powders of compound A2, C2 and C4 and granules of compound C6 were, respectively, diluted with water and applied under submerged condition so that the active ingredients became the prescribed amounts, respectively. The state of growth was visually observed 19 days after application, and the growth inhibition rate (%) evaluated in the same manner as in the above Test Example 1 (observed value) and the growth inhibition rate (%) calculated by the above-mentioned Colby method (expected value) are shown in Tables 36, 37 and 38.
# as §7, with “3” for “2”, “A2” for “A2, C2”, “and” for “and C4 and granules of”, “(D2.2)” for “C6”, “respectively. […]” for “respectively.”
# [2] = tested on: barnyardgrass (Echinochloa oryzicola vasing); assay: Growth inhibition of barnyardgrass in paddy soil pots, application under submerged condition, visual rating (observed value) and Colby expected value; type: in vivo; conditions: for inhibition at 225 g/ha: read-out: Growth inhibition rate (%) Observed, 2.25 g/a
# Text: as §1, §2, §3, §4
# Paddy field soil was put into a 1/10,000 are pot, and seeds of barnyardgrass (Echinochloa oryzicola vasing) were sown and left to stand under an irrigated condition with a water depth of 3.5 cm. When barnyardgrass reached 2.0 to 2.5 leaf stage, wettable powders of compound A2 and compound (B1.1) were, respectively, diluted with water and applied under submerged condition so that the active ingredients became the prescribed amounts, respectively. The state of growth was visually observed 21 days after application, and the growth inhibition rate (%) evaluated in accordance with the following evaluation standard (observed value) and the growth inhibition rate (%) calculated by the above-mentioned Colby method (expected value) are shown in Table 1.
# as §5
# (§8) Paddy field soil was put into a 1/10,000 are pot, and seeds of barnyardgrass (Echinochloa oryzicola vasing) were sown and left to stand under an irrigated condition with a water depth of 3.5 cm. When barnyardgrass reached 2.0 to 2.5 leaf stage, wettable powders of compound A2 and compound (B2.1) were, respectively, diluted with water and applied under submerged condition so that the active ingredients became the prescribed amounts, respectively. The state of growth was visually observed 21 days after application, and evaluation and calculation were carried out in the same manner as in the above Test Example 1.
# as §8, with “leaf stage, a wettable powder” for “leaf stage, wettable powders”, “a wettable powder of compound” for “stage, wettable powders of compound”, “A2 and an emulsifiable concentrate of compound (B3.1)” for “A2 and compound (B2.1)”, “of compound (B3.1) were, respectively,” for “and compound (B2.1) were, respectively,”
# as §8, with “(B4.1)” for “(B2.1)”
# Paddy field soil was put into a 1/10,000 are pot, and seeds of barnyardgrass (Echinochloa oryzicola vasing) were sown and left to stand under an irrigated condition with a water depth of 3.5 cm. […]
# [3] = 0.5 g/a, 2 leaf stage, 19 days after application, Test Example 33
# [4] = 1.0 g/a, 2 leaf stage, 19 days after application, Test Example 33
# [5] = 1.5 g/a, 2 leaf stage, 19 days after application, Test Example 34
# [6] = 2.0 g/a, 2 leaf stage, 19 days after application, Test Example 33
# [7] = 3.75 g/a, 2 leaf stage, 19 days after application, Test Example 34
# [8] = 10 g/a, 2 leaf stage, 19 days after application, Test Example 34
smiles,measurement,setting,value
"CCNc1nc(NCC)nc(SC)n1 [Compound (B5.1), simetryn]",inhibition at 450 g/ha,"[1]; Schoenoplectiella juncoides, soil, 696 h, read-out: Growth inhibition rate (%) Observed",25%
same,inhibition at 169 g/ha,"[2]; Echinochloa oryzicola, soil, 504 h, read-out: Growth inhibition rate (%) Observed, 1.69 g/a, 1.0 to 3.0 leaf stage, 21 days after application",3%
same,inhibition at 225 g/ha,"[2]; Echinochloa oryzicola, soil, 504 h, 2.0 to 2.5 leaf stage, 21 days after application",2%
same,inhibition at 338 g/ha,"[2]; Echinochloa oryzicola, soil, 504 h, read-out: Growth inhibition rate (%) Observed, 3.38 g/a, 1.0 to 3.0 leaf stage, 21 days after application",10%
same,inhibition at 450 g/ha,"[2]; Echinochloa oryzicola, soil, 504 h, read-out: Growth inhibition rate (%) Observed, 4.5 g/a, 2.0 to 2.5 leaf stage, 21 days after application",5%
same,inhibition at 225 g/ha,"[2]; Echinochloa oryzicola, soil, 696 h, 2.4 to 3.2 leaf stage, 29 days after application, Test Example 45",5%
"CC(C)N1C(=O)c2ccccc2NS1(=O)=O [Compound (B7.1), bentazone]",inhibition at 413 g/ha,"[1]; Schoenoplectiella juncoides, soil, 240 h, 4.13 g/a, 2.3 to 2.6 leaf stage, 10 days after application, read-out: Growth inhibition rate (%) Observed",10%
same,inhibition at 825 g/ha,"[1]; Schoenoplectiella juncoides, soil, 240 h, 8.25 g/a, 2.3 to 2.6 leaf stage, 10 days after application, read-out: Growth inhibition rate (%) Observed",10%
same,inhibition at 1650 g/ha,"[1]; Schoenoplectiella juncoides, soil, 240 h, 16.5 g/a, 2.3 to 2.6 leaf stage, 10 days after application, read-out: Growth inhibition rate (%) Observed",13%
same,inhibition at 750 g/ha,"[1]; Schoenoplectiella juncoides, soil, 504 h, 7.5 g/a, 3.8 to 4.2 leaf stage, 21 days after application, Test Example 61, read-out: Growth inhibition rate (%) Observed",98%
same,inhibition at 3300 g/ha,"[2]; Echinochloa oryzicola, soil, 504 h, 33 g/a, 3.0 to 3.3 leaf stage, 21 days after application, read-out: Growth inhibition rate (%) Observed",0%
same,inhibition at 4400 g/ha,"[2]; Echinochloa oryzicola, soil, 504 h, 44 g/a, 3.0 to 3.3 leaf stage, 21 days after application, read-out: Growth inhibition rate (%) Observed",0%
COc1cc(OC)nc(NC(=O)NS(=O)(=O)c2cccnc2C(O)C(C)F)n1 (stereo not shown) [Compound A1],Growth inhibition rate (%) Observed,"[1]; 0.11 g/a, 3.8 to 4.2 leaf stage, 21 days after application, Test Example 61",65%
same,Growth inhibition rate (%) Observed,"[2]; 0.083 g/a, 1.0 to 3.0 leaf stage, 21 days after application",83%
same,Growth inhibition rate (%) Observed,"[2]; 0.083 g/a, 2.8 to 3.2 leaf stage, 19 days after application, Test Examples 62-65",55%
same,Growth inhibition rate (%) Observed,"[2]; 0.083 g/a, 2.8 to 3.2 leaf stage, 21 days after application, Test Examples 39-43",57%
same,Growth inhibition rate (%) Observed,"[2]; 0.083 g/a, 2.8 to 3.4 leaf stage, 14 days after application, Test Examples 66-72",40%
same,Growth inhibition rate (%) Observed,"[2]; 0.083 g/a, 3.0 to 3.3 leaf stage, 21 days after application",43%
same,Growth inhibition rate (%) Observed,"[2]; 0.11 g/a, 1.0 to 3.0 leaf stage, 21 days after application",97%
same,Growth inhibition rate (%) Observed,"[2]; 0.11 g/a, 2.8 to 3.2 leaf stage, 19 days after application, Test Examples 62-65",93%
same,Growth inhibition rate (%) Observed,"[2]; 0.11 g/a, 2.8 to 3.2 leaf stage, 21 days after application, Test Examples 39-43",67%
same,Growth inhibition rate (%) Observed,"[2]; 0.11 g/a, 2.8 to 3.4 leaf stage, 14 days after application, Test Examples 66-72",53%
same,Growth inhibition rate (%) Observed,"[2]; 0.11 g/a, 3.0 to 3.3 leaf stage, 21 days after application",60%
same,Growth inhibition rate (%) Observed,"[2]; 0.165 g/a, 1.0 to 3.0 leaf stage, 21 days after application",98%
same,Growth inhibition rate (%) Observed,"[2]; 0.165 g/a, 2.8 to 3.2 leaf stage, 19 days after application, Test Examples 62-65",94%
same,Growth inhibition rate (%) Observed,"[2]; 0.165 g/a, 2.8 to 3.2 leaf stage, 21 days after application, Test Examples 39-43",78%
same,Growth inhibition rate (%) Observed,"[2]; 0.165 g/a, 2.8 to 3.4 leaf stage, 14 days after application, Test Examples 66-72",70%
same,Growth inhibition rate (%) Observed,"[2]; 0.165 g/a, 3.0 to 3.3 leaf stage, 21 days after application",75%
"CCOC(=O)COc1ccc(Cl)cc1C [Compound C2, MCP ethyl]",Growth inhibition rate (%) Observed,[1]; [3],13%
same,Growth inhibition rate (%) Observed,[1]; [4],23%
same,Growth inhibition rate (%) Observed,[1]; [5],20%
same,Growth inhibition rate (%) Observed,[1]; [6],35%
same,Growth inhibition rate (%) Observed,[1]; [7],45%
same,Growth inhibition rate (%) Observed,[1]; [8],68%
"CCOC(=O)COc1ccc(Cl)cc1Cl [Compound C6, 2,4-D ethyl]",Growth inhibition rate (%) Observed,[1]; [3],23%
same,Growth inhibition rate (%) Observed,[1]; [4],33%
same,Growth inhibition rate (%) Observed,[1]; [5],20%
same,Growth inhibition rate (%) Observed,[1]; [6],53%
same,Growth inhibition rate (%) Observed,[1]; [7],45%
same,Growth inhibition rate (%) Observed,[1]; [8],68%
